Reference: patent US20250270209A1 (INTERLINE THERAPEUTICS, INC., priority 2022, published 2025)

Assays:
LRRK2 wild type enzyme = LRRK2 wild type enzyme (Homo sapiens, UniProt Q5S007); assay: Biochemical Assay: LRRK2 TR-FRET (LanthaScreen) kinase assay with LRRKtide substrate; details: LRRK2 Inhibition, Table 8
Method in brief: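 TR-FRET detection (Tb-labelled phospho-LRRKtide antibody, EDTA stop, 30 min) followed a 120 min, 23 °C reaction of 3 nM wild-type human LRRK2 with LRRKtide (400 nM) and ATP (25 μM) in Tris pH 8.0. Compounds: 11-point 3-fold series from 10 μM, 15 min enzyme preincubation.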

[1] = molecular target: T1, wild type LRRK2 overexpressed in recombinant HEK-293T cells (Homo sapiens, UniProt Q5S007); assay: pS935 LRRK2 Cell Assay (HTRF, phospho-LRRK2 Ser935); assay type: cell-based; details: LRRK2 Inhibition, Table 8, 2 hours compound incubation
T1 construct: host or cells: HEK293T (transient transfection with pCMV-LRRK2 WT plasmid)
T1 sequence (Q5S007 whole entry): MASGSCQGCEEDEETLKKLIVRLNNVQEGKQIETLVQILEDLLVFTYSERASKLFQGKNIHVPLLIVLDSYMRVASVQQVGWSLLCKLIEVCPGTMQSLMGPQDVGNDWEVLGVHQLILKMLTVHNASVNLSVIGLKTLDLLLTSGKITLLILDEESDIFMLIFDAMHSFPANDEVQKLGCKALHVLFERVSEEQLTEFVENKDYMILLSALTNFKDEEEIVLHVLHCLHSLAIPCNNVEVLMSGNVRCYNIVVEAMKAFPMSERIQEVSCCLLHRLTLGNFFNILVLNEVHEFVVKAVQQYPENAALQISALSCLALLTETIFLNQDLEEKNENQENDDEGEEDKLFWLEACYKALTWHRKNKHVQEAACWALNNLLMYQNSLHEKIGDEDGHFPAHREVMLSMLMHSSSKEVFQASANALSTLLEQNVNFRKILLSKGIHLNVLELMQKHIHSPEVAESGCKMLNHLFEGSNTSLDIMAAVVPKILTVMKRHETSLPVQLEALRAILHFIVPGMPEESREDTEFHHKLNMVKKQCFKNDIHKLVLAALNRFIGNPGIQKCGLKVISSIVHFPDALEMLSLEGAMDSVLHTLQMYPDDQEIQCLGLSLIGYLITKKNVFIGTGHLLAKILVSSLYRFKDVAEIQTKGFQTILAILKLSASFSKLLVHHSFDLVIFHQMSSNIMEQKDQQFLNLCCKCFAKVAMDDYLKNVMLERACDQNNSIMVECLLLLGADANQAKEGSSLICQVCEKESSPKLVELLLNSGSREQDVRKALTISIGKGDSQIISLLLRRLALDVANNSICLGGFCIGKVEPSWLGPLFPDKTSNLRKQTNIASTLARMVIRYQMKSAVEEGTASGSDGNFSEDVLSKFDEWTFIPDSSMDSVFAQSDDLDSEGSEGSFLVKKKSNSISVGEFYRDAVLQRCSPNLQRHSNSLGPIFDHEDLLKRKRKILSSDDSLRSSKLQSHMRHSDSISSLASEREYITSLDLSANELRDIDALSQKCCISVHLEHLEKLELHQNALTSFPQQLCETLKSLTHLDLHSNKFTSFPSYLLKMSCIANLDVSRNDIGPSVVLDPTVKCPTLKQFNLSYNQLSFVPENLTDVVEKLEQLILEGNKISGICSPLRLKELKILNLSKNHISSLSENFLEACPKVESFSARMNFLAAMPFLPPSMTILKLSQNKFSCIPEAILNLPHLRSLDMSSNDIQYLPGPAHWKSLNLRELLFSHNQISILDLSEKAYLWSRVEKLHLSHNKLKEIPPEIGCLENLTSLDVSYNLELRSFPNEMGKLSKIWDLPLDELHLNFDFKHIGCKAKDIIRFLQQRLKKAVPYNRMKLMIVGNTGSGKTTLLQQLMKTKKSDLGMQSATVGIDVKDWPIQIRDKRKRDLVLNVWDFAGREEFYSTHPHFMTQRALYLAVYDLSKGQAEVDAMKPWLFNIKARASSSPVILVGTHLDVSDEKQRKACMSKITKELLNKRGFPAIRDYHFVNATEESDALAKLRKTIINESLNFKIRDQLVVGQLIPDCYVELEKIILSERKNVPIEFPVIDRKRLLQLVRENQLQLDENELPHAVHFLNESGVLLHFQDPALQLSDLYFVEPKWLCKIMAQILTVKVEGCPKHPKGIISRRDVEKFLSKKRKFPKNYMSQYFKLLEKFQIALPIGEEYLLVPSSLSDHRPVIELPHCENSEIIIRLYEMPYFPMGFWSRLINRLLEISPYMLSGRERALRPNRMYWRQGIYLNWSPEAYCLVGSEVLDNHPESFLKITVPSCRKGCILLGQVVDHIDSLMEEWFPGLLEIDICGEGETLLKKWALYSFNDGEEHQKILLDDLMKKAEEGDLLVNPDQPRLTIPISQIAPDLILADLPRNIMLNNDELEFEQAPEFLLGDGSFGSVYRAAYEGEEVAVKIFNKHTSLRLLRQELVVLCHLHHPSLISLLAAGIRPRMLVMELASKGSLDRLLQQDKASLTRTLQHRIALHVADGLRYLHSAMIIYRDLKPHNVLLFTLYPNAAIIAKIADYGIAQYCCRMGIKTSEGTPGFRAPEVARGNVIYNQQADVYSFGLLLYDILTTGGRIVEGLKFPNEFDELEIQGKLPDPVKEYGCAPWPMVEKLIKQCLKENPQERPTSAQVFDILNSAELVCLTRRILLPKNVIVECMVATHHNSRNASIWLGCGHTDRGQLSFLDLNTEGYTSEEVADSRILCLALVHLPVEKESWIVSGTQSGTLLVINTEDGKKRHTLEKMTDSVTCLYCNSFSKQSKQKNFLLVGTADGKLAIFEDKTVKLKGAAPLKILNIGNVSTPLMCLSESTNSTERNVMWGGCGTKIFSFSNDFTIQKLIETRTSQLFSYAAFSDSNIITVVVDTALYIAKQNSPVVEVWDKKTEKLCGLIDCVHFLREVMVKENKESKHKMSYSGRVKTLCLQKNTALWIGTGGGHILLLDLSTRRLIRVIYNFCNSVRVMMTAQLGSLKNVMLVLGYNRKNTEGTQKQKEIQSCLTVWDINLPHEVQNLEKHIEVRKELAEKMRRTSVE
Method in brief: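 Phospho-Ser935 LRRK2 measured by two-antibody HTRF (Eu-cryptate donor, d2 acceptor; 665/615 nm ratio) after overnight detection at 23° C. Before lysis, transiently LRRK2-transfected HEK-293T cells were exposed 2 h at 37° C to a 9-point, 3-fold series from 10 μM, with DMSO at 0.2%.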

Sequence of LRRK2 wild type enzyme (Q5S007 whole entry): as above

Row | Compound | IC50 (LRRK2 wild type enzyme) [nM] | IC50 [1] [nM]
1 | Cc1nn(C)c(Cl)c1NC(=O)Cc1nc2cnc3ccc(C#N)cc3c2n1[C@@H]1CCO[C@H](C)C1 [Compound 296, N-(5-chloro-1-methyl-3-methyl-4-pyrazolyl){3-[(2R,4R)-2-methyltetrahydro-2H-pyran-4-yl]-12-cyano-3,5,8-triazatricyclo[7.4.0.0^2,6]trideca-1,4,6,8,10,12-hexaen-4-yl}acetamide] | 0.462 | 7.61
2 | C[C@@H]1C[C@H](n2c(CC(=O)Nc3ccc(Cl)nc3)nc3cnc4ccc(C#N)cc4c32)CCO1 [Compound 297, N-(6-chloro-3-pyridyl){3-[(2R,4R)-2-methyltetrahydro-2H-pyran-4-yl]-12-cyano-3,5,8-triazatricyclo[7.4.0.0^2,6]trideca-1,4,6,8,10,12-hexaen-4-yl}acetamide] | 0.225 | 3.99
3 | COc1ccc(NC(=O)Cc2nc3cnc4ccc(C#N)cc4c3n2[C@@H]2CCO[C@H](C)C2)cn1 [Compound 298, N-(6-methoxy-3-pyridyl){3-[(2R,4R)-2-methyltetrahydro-2H-pyran-4-yl]-12-cyano-3,5,8-triazatricyclo[7.4.0.0^2,6]trideca-1,4,6,8,10,12-hexaen-4-yl}acetamide] | 0.346 | 5.52
4 | C[C@@H]1C[C@H](n2c(CC(=O)Nc3ccc(F)nc3)nc3cnc4ccc(C#N)cc4c32)CCO1 [Compound 299, N-(6-fluoro-3-pyridyl){3-[(2R,4R)-2-methyltetrahydro-2H-pyran-4-yl]-12-cyano-3,5,8-triazatricyclo[7.4.0.0^2,6]trideca-1,4,6,8,10,12-hexaen-4-yl}acetamide] | 0.387 | 10.5
5 | C[C@@H]1C[C@H](n2c(CC(=O)Nc3cnc(C4CC4)nc3)nc3cnc4ccc(C#N)cc4c32)CCO1 [Compound 300, N-(2-cyclopropyl-5-pyrimidinyl){3-[(2R,4R)-2-methyltetrahydro-2H-pyran-4-yl]-12-cyano-3,5,8-triazatricyclo[7.4.0.0^2,6]trideca-1,4,6,8,10,12-hexaen-4-yl}acetamide] | 0.382 | 10.6
6 | CO[C@H]1C[C@@H](NC(=O)Cc2nc3cnc4ccc(C#N)cc4c3n2[C@@H]2CCO[C@H](C)C2)C1 [Compound 301, N-[(1s,3s)-3-methoxycyclobutyl]{3-[(2R,4R)-2-methyltetrahydro-2H-pyran-4-yl]-12-cyano-3,5,8-triazatricyclo[7.4.0.0^2,6]trideca-1,4,6,8,10,12-hexaen-4-yl}acetamide] | 0.701 | 41.3
7 | C[C@@H]1C[C@H](n2c(CC(=O)NC3CC=CC3)nc3cnc4ccc(C#N)cc4c32)CCO1 [Compound 302, N-(3-cyclopenten-1-yl){3-[(2R,4R)-2-methyltetrahydro-2H-pyran-4-yl]-12-cyano-3,5,8-triazatricyclo[7.4.0.0^2,6]trideca-1,4,6,8,10,12-hexaen-4-yl}acetamide] | 0.483 | 10
8 | C[C@@H]1C[C@H](n2c(CC(=O)NC3(C)CCC3)nc3cnc4ccc(C#N)cc4c32)CCO1 [Compound 303, N-1-methylcyclobutyl{3-[(2R,4R)-2-methyltetrahydro-2H-pyran-4-yl]-12-cyano-3,5,8-triazatricyclo[7.4.0.0^2,6]trideca-1(13),2(6),4,7,9,11-hexaen-4-yl}acetamide] | 1.29 | 47
9 | C[C@@H]1C[C@H](n2c(CC(=O)Nc3cnn(C4COC4)c3)nc3cnc4ccc(C#N)cc4c32)CCO1 [Compound 304, N-[1-(3-oxetanyl)-4-pyrazolyl]{3-[(2R,4R)-2-methyltetrahydro-2H-pyran-4-yl]-12-cyano-3,5,8-triazatricyclo[7.4.0.0^2,6]trideca-1(13),2(6),4,7,9,11-hexaen-4-yl}acetamide] | 0.733 | 107
10 | C[C@@H]1C[C@H](n2c(CC(=O)Nc3cnn(C4CCC4)c3)nc3cnc4ccc(C#N)cc4c32)CCO1 [Compound 305, N-(1-cyclobutyl-4-pyrazolyl){3-[(2R,4R)-2-methyltetrahydro-2H-pyran-4-yl]-12-cyano-3,5,8-triazatricyclo[7.4.0.0^2,6]trideca-1,4,6,8,10,12-hexaen-4-yl}acetamide] | 0.633 | 12.3
11 | CC(C)n1cc(NC(=O)Cc2nc3cnc4ccc(C#N)cc4c3n2[C@@H]2CCO[C@H](C)C2)cn1 [Compound 306, N-(1-isopropyl-4-pyrazolyl){3-[(2R,4R)-2-methyltetrahydro-2H-pyran-4-yl]-12-cyano-3,5,8-triazatricyclo[7.4.0.0^2,6]trideca-1(13),2(6),4,7,9,11-hexaen-4-yl}acetamide] | 0.721 | 16
12 | C[C@@H]1C[C@H](n2c(CC(=O)Nc3cnn(C4CC4)c3)nc3cnc4ccc(C#N)cc4c32)CCO1 [Compound 307, N-(1-cyclopropyl-4-pyrazolyl){3-[(2R,4R)-2-methyltetrahydro-2H-pyran-4-yl]-12-cyano-3,5,8-triazatricyclo[7.4.0.0^2,6]trideca-1(13),2(6),4,7,9,11-hexaen-4-yl}acetamide] | 0.683 | 17.2
13 | C[C@@H]1C[C@H](n2c(CC(=O)Nc3nccnc3Cl)nc3cnc4ccc(C#N)cc4c32)CCO1 [Compound 308, N-(3-chloro-2-pyrazinyl){3-[(2R,4R)-2-methyltetrahydro-2H-pyran-4-yl]-12-cyano-3,5,8-triazatricyclo[7.4.0.0^2,6]trideca-1(9),2(6),4,7,10,12-hexaen-4-yl}acetamide] | 1.25 | 18.6
14 | C[C@@H]1C[C@H](n2c(CC(=O)NC3CCCCC3)nc3cnc4ccc(C#N)cc4c32)CCO1 [Compound 309, N-cyclohexyl{3-[(2R,4R)-2-methyltetrahydro-2H-pyran-4-yl]-12-cyano-3,5,8-triazatricyclo[7.4.0.0^2,6]trideca-1,4,6,8,10,12-hexaen-4-yl}acetamide] | 0.635 | 14.4
15 | CCn1cc(NC(=O)Cc2nc3cnc4ccc(C#N)cc4c3n2[C@@H]2CCO[C@H](C)C2)cn1 [Compound 310, N-(1-ethyl-4-pyrazolyl){3-[(2R,4R)-2-methyltetrahydro-2H-pyran-4-yl]-12-cyano-3,5,8-triazatricyclo[7.4.0.0^2,6]trideca-1,4,6,8,10,12-hexaen-4-yl}acetamide] | 0.712 | 15.4
16 | Cc1nccnc1NC(=O)Cc1nc2cnc3ccc(C#N)cc3c2n1[C@@H]1CCO[C@H](C)C1 [Compound 311, N-(3-methyl-2-pyrazinyl){3-[(2R,4R)-2-methyltetrahydro-2H-pyran-4-yl]-12-cyano-3,5,8-triazatricyclo[7.4.0.0^2,6]trideca-1(9),2(6),4,7,10,12-hexaen-4-yl}acetamide] | 0.583 | 10
17 | COc1nccnc1NC(=O)Cc1nc2cnc3ccc(C#N)cc3c2n1[C@@H]1CCO[C@H](C)C1 [Compound 312, N-(3-methoxy-2-pyrazinyl){3-[(2R,4R)-2-methyltetrahydro-2H-pyran-4-yl]-12-cyano-3,5,8-triazatricyclo[7.4.0.0^2,6]trideca-1(9),2(6),4,7,10,12-hexaen-4-yl}acetamide] | 0.574 | 5.68
18 | C[C@@H]1C[C@H](n2c(CC(=O)Nc3cnoc3)nc3cnc4ccc(Cl)cc4c32)CCO1 [Compound 313] | 0.722 | 7.09
19 | Cc1cncc(NC(=O)Cc2nc3cnc4ccc(C#N)cc4c3n2[C@@H]2CCO[C@H](C)C2)n1 [Compound 314, N-(6-methyl-2-pyrazinyl){3-[(2R,4R)-2-methyltetrahydro-2H-pyran-4-yl]-12-cyano-3,5,8-triazatricyclo[7.4.0.0^2,6]trideca-1(9),2(6),4,7,10,12-hexaen-4-yl}acetamide] | 0.542 | 2.36
20 | Cc1cnc(NC(=O)Cc2nc3cnc4ccc(C#N)cc4c3n2[C@@H]2CCO[C@H](C)C2)cn1 [Compound 315, N-(5-methyl-2-pyrazinyl){3-[(2R,4R)-2-methyltetrahydro-2H-pyran-4-yl]-12-cyano-3,5,8-triazatricyclo[7.4.0.0^2,6]trideca-1(9),2(6),4,7,10,12-hexaen-4-yl}acetamide] | 0.471 | 2.52
21 | Cc1ncccc1NC(=O)Cc1nc2cnc3ccc(C#N)cc3c2n1[C@@H]1CCO[C@H](C)C1 [Compound 316, N-(2-methyl-3-pyridyl){3-[(2R,4R)-2-methyltetrahydro-2H-pyran-4-yl]-12-cyano-3,5,8-triazatricyclo[7.4.0.0^2,6]trideca-1(9),2(6),4,7,10,12-hexaen-4-yl}acetamide] | 0.527 | 6.81
22 | C[C@@H]1C[C@H](n2c(CC(=O)Nc3cccnc3F)nc3cnc4ccc(C#N)cc4c32)CCO1 [Compound 317, N-(2-fluoro-3-pyridyl){3-[(2R,4R)-2-methyltetrahydro-2H-pyran-4-yl]-12-cyano-3,5,8-triazatricyclo[7.4.0.0^2,6]trideca-1(9),2(6),4,7,10,12-hexaen-4-yl}acetamide] | 0.496 | 4.03
23 | COc1ncccc1NC(=O)Cc1nc2cnc3ccc(C#N)cc3c2n1[C@@H]1CCO[C@H](C)C1 [Compound 318, N-(2-methoxy-3-pyridyl){3-[(2R,4R)-2-methyltetrahydro-2H-pyran-4-yl]-12-cyano-3,5,8-triazatricyclo[7.4.0.0^2,6]trideca-1(9),2(6),4,7,10,12-hexaen-4-yl}acetamide] | 0.499 | 2.04
24 | Cc1ccc(NC(=O)Cc2nc3cnc4ccc(C#N)cc4c3n2[C@@H]2CCO[C@H](C)C2)cn1 [Compound 319, N-(6-methyl-3-pyridyl){3-[(2R,4R)-2-methyltetrahydro-2H-pyran-4-yl]-12-cyano-3,5,8-triazatricyclo[7.4.0.0^2,6]trideca-1(9),2(6),4,7,10,12-hexaen-4-yl}acetamide] | 0.542 | 5.93
